Patent US20200146314A1, “TRACE MINERAL COMPOSITION” (Nutreco IP Assets B.V., priority 2017, published 2020)
Marks after values point to notes of the source that are not given here.

System: broiler chickens
Assay: Effect of iron source and level on hemoglobin, hematocrit, performance and iron bioavailability (slope-ratio) of iron-depleted broiler chicks
Type: in vivo
Conditions: for Efficiency / Gain / Hematocrit / Intake: from day 7
Protocol: Experiments were conducted to determine the effect of trace mineral level and source on hemoglobin, hematocrit and performance of broiler chickens. Bioavailability of iron was determined by the common-intercept multiple linear regression (slope-ratio) method (S. Aoyagi and D. H. Baker, Nutritional evaluation of a copper-methionine complex for chicks, Poult. Sci. 1993; 72:2309-15). For the first 7 days, chicks were fed a semi-purified diet based on dextrose, corn starch and casein (see Table 1), but with a low level of corn in order to encourage food intake. The calculated iron concentration was 25 ppm and the adaptation period was done in order to deplete iron stores received via the egg.
Beginning on day 7, chicks were provided experimental diets containing the three iron sources added to the basal diet as tabulated below. The three iron sources are commercial grade iron sulphate (FeSO4) (Comparative Example A), siderite (Comparative Example B) and agglomerated particles of starch and crystallites of iron(II) carbonate (Example 1; in accordance with the disclosure) (see Table 2). The agglomerated particles were prepared by grinding siderite to a d90 value below 5 subsequently mixing the ground iron(II) carbonate, starch and water, and spray drying the dispersion. The resulting agglomerated particles have a mean particle size of […]; the content of iron(II) carbonate is 36.94 wt %, based on the total weight of the agglomerated particles.
Birds were raised in Petersime batteries and all metal (feeders, waterers, raised wire floors) in contact with the birds was stainless steel. Water was deionized.
Statistical Analysis: Hemoglobin, hematocrit and performance data were regressed against dietary iron level for each source to obtain linear dose response relationships and bioavailability was calculated from the ratio of the slopes to that of FeSO4. Data (excluding the basal treatment) was also analyzed as a […]×4 level factorial arrangement of treatments. Slope ratios were calculated using the 0, 15, and 25 ppm added levels.

[1] = 15 ppm added iron in basal diet
[2] = 25 ppm added iron in basal diet

Question: `O=S(=O)([O-])[O-].[Fe+2]` [Comparative Example A, iron sulphate (FeSO4)] was tested. Which Efficiency [1] did it give?
Answer: The Efficiency was 0.59 gain/feed.

Question: What about the Gain [1] of the same compound?
Answer: Its Gain is 523.9 g/chick.

Question: What about the Hematocrit [1] of the same compound?
Answer: Its Hematocrit is 38.3%.

Question: What about the Intake [1] of the same compound?
Answer: Its Intake is 888.2 g/chick.

Question: And the Efficiency [2]?
Answer: Its Efficiency is 0.62 gain/feed.

Question: And the Gain [2]?
Answer: The Gain was 548.5 g/chick.

Question: And the Hematocrit [2]?
Answer: Its Hematocrit is 37.2%.

Question: And the Intake [2]?
Answer: Its Intake is 884.0 g/chick.

Question: And the “Efficiency, main effect mean for iron source” value (across all levels)?
Answer: Its value is 0.61 gain/feed.

Question: What about the “Gain, main effect mean for iron source” value (across all levels) of the same compound?
Answer: The value was 531.8 g/chick.

Question: And the “Hematocrit, main effect mean for iron source” value (across all levels)?
Answer: Its value is 37.3%.

Question: What about the “Intake, main effect mean for iron source” value (across all levels) of the same compound?
Answer: The value was 867.5 ^a g/chick.
